Measured values as given in patent publication US9884063B2, “Amido-substituted azole compounds” (Bayer Pharma Aktiengesellschaft, priority 2014, dated 2018).

Target: T1, TNKS1 (Homo sapiens, UniProt O95271)
T1 sequence (O95271 1-1327): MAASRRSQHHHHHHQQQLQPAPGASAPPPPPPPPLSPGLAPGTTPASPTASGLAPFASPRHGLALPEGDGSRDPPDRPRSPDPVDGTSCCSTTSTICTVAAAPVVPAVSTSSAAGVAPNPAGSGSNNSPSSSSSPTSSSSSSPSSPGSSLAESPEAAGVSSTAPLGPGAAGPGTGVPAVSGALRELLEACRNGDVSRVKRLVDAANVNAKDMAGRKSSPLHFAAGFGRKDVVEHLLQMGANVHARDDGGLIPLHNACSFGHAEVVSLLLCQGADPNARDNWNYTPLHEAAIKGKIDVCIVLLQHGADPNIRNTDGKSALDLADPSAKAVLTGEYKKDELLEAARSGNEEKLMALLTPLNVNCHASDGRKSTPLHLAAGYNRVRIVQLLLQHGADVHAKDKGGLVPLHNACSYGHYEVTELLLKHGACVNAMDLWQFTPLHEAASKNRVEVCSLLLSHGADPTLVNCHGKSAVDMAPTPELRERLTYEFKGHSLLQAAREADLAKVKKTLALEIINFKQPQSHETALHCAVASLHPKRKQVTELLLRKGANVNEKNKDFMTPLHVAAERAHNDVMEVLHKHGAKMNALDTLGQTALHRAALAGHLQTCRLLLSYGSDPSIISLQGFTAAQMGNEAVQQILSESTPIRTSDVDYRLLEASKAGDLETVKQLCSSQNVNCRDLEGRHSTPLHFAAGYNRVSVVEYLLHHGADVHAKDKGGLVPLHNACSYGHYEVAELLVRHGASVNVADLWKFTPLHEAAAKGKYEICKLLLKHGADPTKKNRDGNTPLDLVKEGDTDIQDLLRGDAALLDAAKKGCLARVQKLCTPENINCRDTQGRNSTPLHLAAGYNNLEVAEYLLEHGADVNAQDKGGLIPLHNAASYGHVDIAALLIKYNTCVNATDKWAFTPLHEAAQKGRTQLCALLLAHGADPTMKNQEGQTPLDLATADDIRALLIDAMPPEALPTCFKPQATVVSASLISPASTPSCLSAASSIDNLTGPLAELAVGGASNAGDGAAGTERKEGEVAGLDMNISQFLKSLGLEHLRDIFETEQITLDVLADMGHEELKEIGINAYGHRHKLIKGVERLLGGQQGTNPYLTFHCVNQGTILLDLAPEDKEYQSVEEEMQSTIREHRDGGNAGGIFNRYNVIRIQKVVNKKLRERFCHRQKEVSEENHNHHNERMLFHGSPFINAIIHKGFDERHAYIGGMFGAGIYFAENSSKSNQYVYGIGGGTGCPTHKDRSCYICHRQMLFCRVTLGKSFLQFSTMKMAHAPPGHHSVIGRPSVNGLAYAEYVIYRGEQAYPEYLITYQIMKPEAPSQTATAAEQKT
Assay: TNKS1 Assay 1 (TNKS1 Histone Ribosylation Assay Kit, biotin-labeled NAD+)
Format: biochemical
Conditions: chemiluminescent readout, 384 well
Procedure: The potency of the compounds according to the invention was assessed by applying an in vitro inhibition assay. The TNKS1 catalyzed NAD^+-dependent ribosylation of a suitable protein substrate was detected using a commercially available biotin/streptavidin binding based assay format [TNKS1 Histone Ribosylation Assay Kit (Biotin-labeled NAD+), Catalog #80579; BPS Bioscience, San Diego, USA]. Here, the incorporation of a biotin-labeled NAD+ during the TNKS1 catalyzed ribosylation reaction was detected with a streptavidin-HRP coupled chemi-luminescent readout. The intensity of the readout signal is proportional to the incorporated NAD^+. Inhibition of TNKS1 leads to a decreased incorporation of NAD^+ and consequently to a lower readout signal intensity. The concentration of a test compound which inhibits the enzyme activity by 50% (corresponds to half of the normed readout signal intensity) is reported as IC50.
The assay was conducted in a 384 well MTP format according to the manufacturer's protocol [bpsbioscience.com/poly-adp-ribose-polymerase/assay-kit/tnks1-histone-ribosylation-assay-kit-biotin-labeled-nad-80579 referencing: Brown, J. A., Marala, R. B. J. Pharmacol. Toxicol. Methods 2002 47:137-41] and using a BMG Pherastar MTP reader [BMG-Labtech, Offenburg, Germany].

Row | IC50 (Table 1) [nM] | IC50 (first table) [nM] | Compound
1 | 50 | 50 | CNC(=O)c1nc[nH]c1C(=O)Nc1ccc(NC(=O)c2ccncc2Cl)cc1 [Example 6, N^5-{4-[(3-chloroisonicotinoyl)amino]phenyl}-N^4-methyl-1H-imidazole-4,5-dicarboxamide]
2 | 20 | 20 | CNC(=O)c1nc[nH]c1C(=O)Nc1ccc(NC(=O)c2ccc(F)cc2Cl)cc1 [Example 12, N^5-{4-[(2-chloro-4-fluorobenzoyl)amino]phenyl}-N^4-methyl-1H-imidazole-4,5-dicarboxamide]
3 | 1300 | 1300 | CCC(C)NC(=O)c1ncoc1C(=O)Nc1ccc(NC(=O)c2ccc(F)cc2Cl)cc1 (centres unmarked) [Example 7, N^4-sec-butyl-N^5-{4-[(2-chloro-4-fluorobenzoyl)amino]phenyl}-1,3-oxazole-4,5-dicarboxamide]
4 | 770 | 770 | CNC(=O)c1nc[nH]c1C(=O)Nc1ccc(NC(=O)c2c(C)cc(F)cc2C)cc1 [Example 23, N^5-{4-[(4-fluoro-2,6-dimethylbenzoyl)amino]phenyl}-N^4-methyl-1H-imidazole-4,5-dicarboxamide]
5 | 280 | 280 | CN(C)C(=O)c1nc[nH]c1C(=O)Nc1ccc(NC(=O)c2ccc(F)cc2Cl)cc1 [Example 24, N^5-{4-[(2-chloro-4-fluorobenzoyl)amino]phenyl}-N^4,N^4-dimethyl-1H-imidazole-4,5-dicarboxamide]
6 | 900 | 900 | CC(C)NC(=O)c1ncoc1C(=O)Nc1ccc(NC(=O)c2ccc(F)cc2Cl)cc1 [Example 15, N^5-{4-[(2-chloro-4-fluorobenzoyl)amino]phenyl}-N^4-isopropyl-1,3-oxazole-4,5-dicarboxamide]
7 | 70 | 70 | CNC(=O)c1nc[nH]c1C(=O)Nc1ccc(NC(=O)c2ccc(OCCN3CCN(C)CC3)cc2Cl)cc1 [Example 28, N^5-[4-({2-chloro-4-[2-(4-methylpiperazin-1-yl)ethoxy]benzoyl}amino)phenyl]-N^4-methyl-1H-imidazole-4,5-dicarboxamide]
8 | 410 | 400 | CNC(=O)c1nc[nH]c1C(=O)Nc1ccc(NC(=O)c2c(Cl)cccc2Cl)cc1 [Example 26, N^5-{4-[(2,6-dichlorobenzoyl)amino]phenyl}-N^4-methyl-1H-imidazole-4,5-dicarboxamide]
9 | 1700 | 1700 | CNC(=O)c1nc[nH]c1C(=O)Nc1ccc(NC(=O)c2ccccc2C)cc1 [Example 19, N^4-methyl-N^5-{4-[(2-methylbenzoyl)amino]phenyl}-1H-imidazole-4,5-dicarboxamide]
10 | 70 | 70 | CNC(=O)c1nc[nH]c1C(=O)Nc1ccc(NC(=O)c2ccc(F)cc2Cl)nc1 [Example 16, N^5-{6-[(2-chloro-4-fluorobenzoyl)amino]pyridin-3-yl}-N^4-methyl-1H-imidazole-4,5-dicarboxamide]
11 | 2270 | 2270 | CC(NC(=O)c1ncoc1C(=O)Nc1ccc(NC(=O)c2ccc(F)cc2Cl)cc1)c1ccccc1 (centres unmarked) [Example 8, N^5-{4-[(2-chloro-4-fluorobenzoyl)amino]phenyl}-N^4-(1-phenylethyl)-1,3-oxazole-4,5-dicarboxamide]
12 | 110 | 110 | CNC(=O)c1nc[nH]c1C(=O)Nc1ccc(NC(=O)c2ccc(Cl)cc2Cl)cc1 [Example 9, N^5-{4-[(2,4-dichlorobenzoyl)amino]phenyl}-N^4-methyl-1H-imidazole-4,5-dicarboxamide]
13 | 100 | 100 | CNC(=O)c1nc[nH]c1C(=O)Nc1ccc(NC(=O)c2ccccc2Cl)cc1 [Example 27, N^5-{4-[(2-chlorobenzoyl)amino]phenyl}-N^4-methyl-1H-imidazole-4,5-dicarboxamide]
14 | 140 | 140 | O=C(Nc1ccc(NC(=O)c2[nH]cnc2C(=O)NCC(F)(F)F)cc1)c1ccc(F)cc1Cl [Example 30, N^4-{4-[(2-chloro-4-fluorobenzoyl)amino]phenyl}-N^5-(2,2,2-trifluoroethyl)-1H-imidazole-4,5-dicarboxamide]
15 | 70 | 70 | CNC(=O)c1nc[nH]c1C(=O)Nc1ccc(NC(=O)c2ccc(OCCN(C)C)cc2Cl)cc1 [Example 25, N^5-[4-({2-chloro-4-[2-(dimethylamino)ethoxy]benzoyl}amino)phenyl]-N^4-methyl-1H-imidazole-4,5-dicarboxamide]
16 | 310 | 310 | CC(C)NC(=O)c1nc[nH]c1C(=O)Nc1ccc(NC(=O)c2ccc(F)cc2Cl)cc1 [Example 10, N^5-{4-[(2-chloro-4-fluorobenzoyl)amino]phenyl}-N^4-isopropyl-1H-imidazole-4,5-dicarboxamide]
17 | 120 | 120 | CNC(=O)c1nc[nH]c1C(=O)Nc1ccc(NC(=O)c2ccc(N(C)C)cc2Cl)cc1 [Example 4, N^5-(4-{[2-chloro-4-(dimethylamino)benzoyl]amino}phenyl)-N^4-methyl-1H-imidazole-4,5-dicarboxamide]
18 | > 100000 | ≥ 100000 | CNC(=O)c1nc[nH]c1C(=O)Nc1ccc(NC(=O)c2c(-c3ccccc3)nn(C)c2Cl)cc1 [Example 17, N^5-(4-{[(5-chloro-1-methyl-3-phenyl-1H-pyrazol-4-yl)carbonyl]amino}phenyl)-N^4-methyl-1H-imidazole-4,5-dicarboxamide]
19 | > 100000 | – | CNC(=O)c1nc[nH]c1C(=O)Nc1ccc(NC(=O)c2ccc(N3CCCC3)cc2F)cc1 [Example 3, N^5-(4-{[2-fluoro-4-(pyrrolidin-1-yl)benzoyl]amino}phenyl)-N^4-methyl-1H-imidazole-4,5-dicarboxamide]
20 | 1700 | 1700 | CNC(=O)c1nc[nH]c1C(=O)Nc1ccc(NC(=O)c2ccc(F)cc2)cc1 [Example 20, N^5-{4-[(4-fluorobenzoyl)amino]phenyl}-N^4-methyl-1H-imidazole-4,5-dicarboxamide]
21 | 320 | 320 | CNC(=O)c1nc[nH]c1C(=O)Nc1ccc(NC(=O)c2ccc(F)cc2Cl)c(C)c1 [Example 5, N^5-{4-[(2-chloro-4-fluorobenzoyl)amino]-3-methylphenyl}-N^4-methyl-1H-imidazole-4,5-dicarboxamide]
22 | > 100000 | – | CNC(=O)c1[nH]cnc1C(=O)Nc1ccc(NC(=O)c2cc(Cl)sc2Cl)cc1 [Example 213, N^4-(4-{[(2,5-dichloro-3-thienyl)carbonyl]amino}phenyl)-N^5-methyl-1H-imidazole-4,5-dicarboxamide]
23 | 1010 | 1010 | CNC(=O)c1nc[nH]c1C(=O)Nc1ccc(NC(=O)c2cccc(Cl)c2Cl)cc1 [Example 1, N^5-{4-[(2,3-dichlorobenzoyl)amino]phenyl}-N^4-methyl-1H-imidazole-4,5-dicarboxamide]
24 | 220 | – | CNC(=O)c1ncoc1C(=O)Nc1ccc(NC(=O)c2ccc(F)cc2Cl)cc1 [Example 11, N^5-{4-[(2-chloro-4-fluorobenzoyl)amino]phenyl}-N^4-methyl-1,3-oxazole-4,5-dicarboxamide]
25 | 420 | 420 | O=C(Nc1ccc(NC(=O)c2[nH]cnc2C(=O)NCc2ccccc2)cc1)c1ccc(F)cc1Cl [Example 18, N^4-benzyl-N^5-{4-[(2-chloro-4-fluorobenzoyl)amino]phenyl}-1H-imidazole-4,5-dicarboxamide]
